Experimental data reported in patent US9676714B2, “Sulfonylindole derivatives and method for preparing the same” (Daewoong Pharmaceutical Co., Ltd., priority 2013, dated 2017).
Counter-ions that a name gives are not always drawn.

Experiments:
[1] = target: T1, proton pump (H+/K+-ATPase) (Sus scrofa, UniProt P19156); test: Measurement of inhibitory effects on proton pump (H+/K+-ATPase) activities; type: biochemical; conditions: hog gastric vesicles, K+-specific H+/K+-ATPase activity, Tris-HCl buffer pH 7.4, 37° C. for 40 minutes, malachite green Pi readout
T1 construct: Gastric vesicles were prepared from hog stomach via centrifugal separation; from tissue; host or cells: hog stomach (gastric vesicles, method of Rabon et al. 1988)
T1 sequence (P19156 whole entry): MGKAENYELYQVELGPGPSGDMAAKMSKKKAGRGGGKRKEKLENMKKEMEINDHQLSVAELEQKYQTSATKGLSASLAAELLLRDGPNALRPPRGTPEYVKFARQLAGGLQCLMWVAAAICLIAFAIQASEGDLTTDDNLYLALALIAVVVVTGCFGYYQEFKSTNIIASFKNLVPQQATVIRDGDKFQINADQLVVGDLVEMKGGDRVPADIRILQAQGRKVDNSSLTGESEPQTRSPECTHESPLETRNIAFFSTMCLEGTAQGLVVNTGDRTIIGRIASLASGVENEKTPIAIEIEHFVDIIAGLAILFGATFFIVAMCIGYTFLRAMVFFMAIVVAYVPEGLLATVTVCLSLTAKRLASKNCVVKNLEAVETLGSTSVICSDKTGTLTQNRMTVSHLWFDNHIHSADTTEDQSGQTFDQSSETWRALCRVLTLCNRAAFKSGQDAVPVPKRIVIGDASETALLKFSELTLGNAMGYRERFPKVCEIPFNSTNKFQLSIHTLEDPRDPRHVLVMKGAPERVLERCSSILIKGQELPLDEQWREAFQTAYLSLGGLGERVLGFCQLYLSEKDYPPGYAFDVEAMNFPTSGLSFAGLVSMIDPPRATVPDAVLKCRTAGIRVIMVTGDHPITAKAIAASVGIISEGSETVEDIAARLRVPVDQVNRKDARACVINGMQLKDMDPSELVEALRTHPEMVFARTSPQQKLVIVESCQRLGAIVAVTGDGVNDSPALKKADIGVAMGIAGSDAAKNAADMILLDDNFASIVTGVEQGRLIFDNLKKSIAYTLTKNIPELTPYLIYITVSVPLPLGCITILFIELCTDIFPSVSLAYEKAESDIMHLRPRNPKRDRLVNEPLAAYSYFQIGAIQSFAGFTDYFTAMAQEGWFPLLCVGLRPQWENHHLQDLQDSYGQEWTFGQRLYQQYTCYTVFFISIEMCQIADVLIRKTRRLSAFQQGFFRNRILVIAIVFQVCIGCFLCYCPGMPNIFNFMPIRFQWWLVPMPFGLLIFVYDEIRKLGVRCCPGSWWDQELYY
T1 sequence (P18434 whole entry partner): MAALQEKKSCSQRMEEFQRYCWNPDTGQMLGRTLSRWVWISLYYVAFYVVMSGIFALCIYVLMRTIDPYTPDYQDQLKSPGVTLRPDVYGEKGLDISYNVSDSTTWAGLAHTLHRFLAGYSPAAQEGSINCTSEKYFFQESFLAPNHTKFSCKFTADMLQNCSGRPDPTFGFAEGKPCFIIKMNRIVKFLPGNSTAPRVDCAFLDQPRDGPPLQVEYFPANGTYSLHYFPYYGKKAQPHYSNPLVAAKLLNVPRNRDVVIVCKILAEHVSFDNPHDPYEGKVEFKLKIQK
Procedure, shortened: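 Hog gastric vesicles in 60 mmol/l Tris-HCl pH 7.4 with 0.5% DMSO were treated with compounds at room temperature; reaction was started with 10 μl of 10 mmol/l ATP stock. Released Pi was read at 570 nm, K+-specific activity taken as the ±K+ difference. IC50 from 4-parameter logistic fit.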

[2] = tested on: basal gastric acid secretion; test: Inhibitory effect on the basal gastric acid secretion in pylorus-ligated rats (Shay's rat model); type: in vivo, Sprague Dawley (SD) rats; conditions: 5 h, male SD rats, 3 mg/kg/2 ml into the duodenum, five hours after the ligation, total gastric acid secretion vs control group
Protocol: 3) Inhibitory Effect on the Basal Gastric Acid Secretion in Pylorus-Ligated Rats
Assays for determining inhibitory effect of the compounds of the present invention on the basal gastric acid secretion was performed according to Shay's rat model (Shay, H., et al., 1945, gastroenterology, 5, p. 43-61). Male Sprague Dawley (SD) rats with a body weight in the range of 180˜220 g were divided into test (n=5) and control groups (n=5), and fasted for 18 hours with free access to water. Under isoflurane anesthesia, the abdomens of the rats were incised and then the pylorus was ligated. After the ligation, the control groups were administered with only 10% ethanol, 20% polyethylene glycol (PEG) 400, and 10% aqueous Cremophor solution through the duodenum, and the other groups were administered with test compounds suspended in 10% ethanol, 20% PEG 400, and 10% aqueous Cremophor solution at a concentration of 3 mg/kg/2 ml into the duodenum. Five hours after the ligation, the experimental animals were euthanized and their stomach contents were collected. The thus obtained contents were centrifuged at 4,000×g for 10 minutes, and the supernatant was recovered to obtain gastric juice therefrom. The amount of the gastric juice and its pH were measured. The acidity of the gastric juice was determined by 0.1 N-NaOH volume (ueq/mL) for automatic titration of gastric acid to pH 7.0. The total acid output was obtained by multiplying the gastric acidity by the amount of gastric juice. Inhibition Activity (%) of Test Compounds=(total gastric acid secretion in control group−total gastric acid secretion in groups treated with test compounds)/total gastric acid secretion in control group×100

IC50 [1] | SMILES | inhibition in vivo at 3 mg/kg [2]
1690 nM | CNCc1cn(S(=O)(=O)c2cncc(F)c2)c2cc(Nc3ccc(OC)cc3OC(F)(F)F)ccc12 [Example 214, 1-((5-fluoropyridin-3-yl)sulfonyl)-N-(4-methoxy-2-(trifluoromethoxy)phenyl)-3-((methylamino)methyl)-1H-indol-6-amine hydrochloride] | 75%
1500 nM | CNCc1cn(S(=O)(=O)c2cncc(F)c2)c2cc(Nc3ccc(OC(F)(F)F)cc3OC)ccc12 [Example 216, 1-((5-fluoropyridin-3-yl)sulfonyl)-N-(2-methoxy-4-(trifluoromethoxy)phenyl)-3-((methylamino)methyl)-1H-indol-6-amine hydrochloride] | 69%
540 nM | CNCc1cn(S(=O)(=O)c2cncc(F)c2)c2cc(Nc3ccc(OC)nc3Cl)ccc12 [Example 217, N-(2-chloro-6-methoxypyridin-3-yl)-1-((5-fluoropyridin-311)sulfonyl)-3-((methylamino)methyl)-1H-indol-6-amine hydrochloride] | 44%
2920 nM | CNCc1cn(S(=O)(=O)c2cncc(F)c2)c2cc(Nc3ccc(C(F)(F)F)nc3Cl)ccc12 [Example 218, N-(2-chloro-6-(trifluoromethyl)pyridin-3-yl)-1-((5-fluoropyridin-3-yl)sulfonyl)-3-((methylamino)methyl)-1H-indol-6-amine hydrochloride] | 49%
1160 nM | CNCc1cn(S(=O)(=O)c2cccc(C)c2)c2cc(Nc3ccc(C)cc3F)ccc12 [Example 226, N-(2-fluoro-4-methylphenyl)-3-((methylamino)methyl)-1-(m-tolylsulfonyl)-1H-indol-6-amine hydrochloride] | 44%
230 nM | CNCc1cn(S(=O)(=O)c2cccnc2)c2cc(Cc3ccc(C)cc3Cl)ccc12 [Example 267, 1-(6-(2-chloro-4-methylbenzyl)-1-(pyridin-3-ylsulfonyl)-1H-indol-3-yl)-N-methylmethanamine hydrochloride] | 44%
790 nM | CNCc1cn(S(=O)(=O)c2cccnc2)c2cc(Cc3ccc(C)cc3)ccc12 [Example 270, N-methyl-1-(6-(4-methylbenzyl)-1-(pyridin-3-ylsulfonyl)-1H-indol-3-yl)methanamine hydrochloride] | 38%
500 nM | CNCc1cn(S(=O)(=O)c2cccnc2)c2cc(Cc3ccc(C)cc3F)ccc12 [Example 272, 1-(6-(2-fluoro-4-methylbenzyl)-1-(pyridin-3-ylsulfonyl)-1H-indol-3-yl)-N-methylmethanamine hydrochloride] | 41%
370 nM | CNCc1cn(S(=O)(=O)c2cccnc2)c2cc(Cc3ccc(F)cc3Cl)ccc12 [Example 273, 1-(6-(2-chloro-4-fluorobenzyl)-1-(pyridin-3-ylsulfonyl)-1H-indol-3-yl)-N-methylmethanamine hydrochloride] | 32%
390 nM | CNCc1cn(S(=O)(=O)c2cccnc2)c2cc(Cc3ccc(C)c(F)c3F)ccc12 [Example 286, 1-(6-(2,3-difluoro-4-methylbenzyl)-1-(pyridin-3-ylsulfonyl)-1H-indol-3-yl)-N-methylmethanamine hydrochloride] | 35%
2950 nM | CNCc1cn(S(=O)(=O)c2cccc(C(F)(F)F)c2)c2cc(N(C)c3ccc(OC)nc3Cl)ccc12 [Example 315, N-(2-chloro-6-methoxypyridin-3-yl)-N-methyl-3-((methylamino)methyl)-1-((3-(trifluoromethyl)phenyl)sulfonyl)-1H-indol-6-amine hydrochloride] | 45%
400 nM | CNCc1cn(S(=O)(=O)c2cccc(F)c2)c2cc(Nc3ccc(Cl)cc3Cl)cnc12 [Example 342, N-(2,4-dichlorophenyl)-1-((3-fluorophenyl)sulfonyl)-3-((methylamino)methyl)-1H-pyrrolo[3,2-b]pyridin-6-amine hydrochloride] | 41%
2000 nM | CNCc1cn(S(=O)(=O)c2cccc(F)c2)c2cc(Nc3ccc(OC(F)(F)F)cc3OC)ncc12 [Example 356, 1-((3-fluorophenyl)sulfonyl)-N-(2-methoxy-4-(trifluoromethoxy)phenyl)-3-((methylamino)methyl)-1H-pyrrolo[3,2-c]pyridin-6-amine hydrochloride] | 63%
